Data as given in ChEMBL document CHEMBL2150937, “Elaiomycins D-F, antimicrobial and cytotoxic azoxides from Streptomyces sp. strain HKI0708” (J Nat Prod, 2012).
In brackets after ≈: the same amount, converted by molar mass.

What was measured:
K562 = test: Antiproliferative activity against human K562 cells; format: functional
HeLa = test: Cytotoxicity against human HeLa cells; format: functional
Aspergillus terreus = test: Antifungal activity against amphotericin-resistant Aspergillus terreus DSM 826 assessed as zone of inhibition at 50 ug/disc after 24 hrs by agar diffusion assay; format: functional; details: DSM 826, 24 h, read-out: IZ
[1] = test system: Sporobolomyces salmonicolor; test: Antifungal activity against Sporidiobolus salmonicolor 549 H4 assessed as zone of inhibition at 50 ug/disc after 24 hrs by agar diffusion assay; format: functional; details: 549 H4, 24 h, read-out: IZ
Candida albicans = test: Antifungal activity against Candida albicans H8 assessed as zone of inhibition at 50 ug/disc after 24 hrs by agar diffusion assay; format: functional; details: H8, 24 h, read-out: IZ
Staphylococcus aureus [2] = test: Antibacterial activity against Staphylococcus aureus 511 B3 assessed as zone of inhibition at 50 ug/disc after 24 hrs by agar diffusion assay; format: functional; details: 511 B3, 24 h, read-out: IZ
Staphylococcus aureus [3] = test: Antibacterial activity against methicillin-resistant Staphylococcus aureus 134/93 R9 assessed as zone of inhibition at 50 ug/disc after 24 hrs by agar diffusion assay; format: functional; details: 134/93 R9, 24 h, read-out: IZ
Bacillus subtilis = test: Antibacterial activity against Bacillus subtilis 6633 B1 assessed as zone of inhibition at 50 ug/disc after 24 hrs by agar diffusion assay; format: functional; details: 6633 B1, 24 h, read-out: IZ
Penicillium chrysogenum = test: Antifungal activity against Penicillium notatum JP36 P1 assessed as zone of inhibition at 50 ug/disc after 24 hrs by agar diffusion assay; format: functional; details: JP36 P1, 24 h, read-out: IZ
Mycolicibacterium vaccae = test: Antibacterial activity against Mycobacterium vaccae 10670 M4 assessed as zone of inhibition at 50 ug/disc after 24 hrs by agar diffusion assay; format: functional; details: 10670 M4, 24 h, read-out: IZ
Enterococcus faecalis = test: Antibacterial activity against vancomycin-resistant Enterococcus faecalis 1528 R10 assessed as zone of inhibition at 50 ug/disc after 24 hrs by agar diffusion assay; format: functional; details: 1528 R10, 24 h, read-out: IZ
Pseudomonas aeruginosa [4] = test: Antibacterial activity against Pseudomonas aeruginosa SG 137 B7 assessed as zone of inhibition at 50 ug/disc after 24 hrs by agar diffusion assay; format: functional; details: SG 137 B7, 24 h, read-out: IZ
Aspergillus fumigatus = test: Antifungal activity against Aspergillus fumigatus ATCC 46645 assessed as zone of inhibition at 50 ug/disc after 24 hrs by agar diffusion assay; format: functional; details: ATCC 46645, 24 h, read-out: IZ
HUVEC = test: Antiproliferative activity against HUVEC; format: functional; details: Homo sapiens
Aspergillus niger = test: Antifungal activity against Aspergillus niger DSM 737 assessed as zone of inhibition at 50 ug/disc after 24 hrs by agar diffusion assay; format: functional; details: DSM 737, 24 h, read-out: IZ
Pseudomonas aeruginosa [5] = test: Antibacterial activity against Pseudomonas aeruginosa K 799/61 B9 assessed as zone of inhibition at 50 ug/disc after 24 hrs by agar diffusion assay; format: functional; details: K 799/61 B9, 24 h, read-out: IZ
Escherichia coli = test: Antibacterial activity against Escherichia coli 458 B4 assessed as zone of inhibition at 50 ug/disc after 24 hrs by agar diffusion assay; format: functional; details: 458 B4, 24 h, read-out: IZ
[6] = Cytotoxicity against human UXF 1138L cells by propidium iodide-based fluorescence assay; format: functional, cell-based
[7] = Cytotoxicity against human LXFA 629L cells by propidium iodide-based fluorescence assay; format: functional, cell-based
[8] = Cytotoxicity against human PXF 1752L cells by propidium iodide-based fluorescence assay; format: functional, cell-based
[9] = Cytotoxicity against human CXF HT29 cells by propidium iodide-based fluorescence assay; format: functional, cell-based; details: HT-29
[10] = Cytotoxicity against human PAXF 1657L cells by propidium iodide-based fluorescence assay; format: functional, cell-based
[11] = Cytotoxicity against human PRXF 22Rv1 cells by propidium iodide-based fluorescence assay; format: functional, cell-based, CWR22R
[12] = Cytotoxicity against human MAXF 401NL cells by propidium iodide-based fluorescence assay; format: functional, cell-based
[13] = Cytotoxicity against human GXF251L cells by propidium iodide-based fluorescence assay; format: functional, cell-based; details: GXF 251L
[14] = Cytotoxicity against human LXFL 529L cells by propidium iodide-based fluorescence assay; format: functional, cell-based
[15] = Cytotoxicity against human OVXF 899L cells by propidium iodide-based fluorescence assay; format: functional, cell-based
[16] = Cytotoxicity against human MEXF 462NL cells by propidium iodide-based fluorescence assay; format: functional, cell-based
[17] = Cytotoxicity against human RXF 486L cells by propidium iodide-based fluorescence assay; format: functional, cell-based

Row | SMILES | GI50 (K562) [µg/mL] | CC50 (HeLa) [µg/mL] | zone of inhibition at 50 µg/disc (Aspergillus terreus) [mm] | zone of inhibition at 50 µg/disc [1] [mm] | zone of inhibition at 50 µg/disc (Candida albicans) [mm] | zone of inhibition at 50 µg/disc (Staphylococcus aureus [2]) [mm] | zone of inhibition at 50 µg/disc (Staphylococcus aureus [3]) [mm] | zone of inhibition at 50 µg/disc (Bacillus subtilis) [mm] | zone of inhibition at 50 µg/disc (Penicillium chrysogenum) [mm] | zone of inhibition at 50 µg/disc (Mycolicibacterium vaccae) [mm] | zone of inhibition at 50 µg/disc (Enterococcus faecalis) [mm] | zone of inhibition at 50 µg/disc (Pseudomonas aeruginosa [4]) [mm] | zone of inhibition at 50 µg/disc (Aspergillus fumigatus) [mm] | GI50 (HUVEC) [µg/mL] | zone of inhibition at 50 µg/disc (Aspergillus niger) [mm] | zone of inhibition at 50 µg/disc (Pseudomonas aeruginosa [5]) [mm] | zone of inhibition at 50 µg/disc (Escherichia coli) [mm] | IC50 [6] [µM] | IC50 [7] [µM] | IC50 [8] [µM] | further results
1 | COC[C@H](/N=[N+]([O-])/C=C/CCCCC(C)=O)[C@H](C)O [ELAIOMYCIN D] | > 50 | > 50 | 0 | 0 | 0 | 0 | 0 | 0 | 0 | 0 | 0 | 0 | 0 | > 50 | 0 | 0 | 0 | – | – | – | –
2 | CCCCCC(O)/C=C/[N+]([O-])=N/[C@@H](COC)[C@H](C)O (stereo partly specified) [ELAIOMYCIN E] | 30.3 (≈ 110 µM) | > 50 | 0 | 0 | 0 | 0 | 0 | 10 | 0 | 0 | 10 | 10 | 0 | 31.2 (≈ 114 µM) | 0 | 0 | 0 | – | – | – | –
3 | CCCCCCCC/[N+]([O-])=N/[C@@H](COC)[C@H](C)O [ELAIOMYCIN F] | > 50 | 30.5 (≈ 117 µM) | 0 | 0 | 0 | 0 | 0 | 0 | 0 | 0 | 0 | 0 | 0 | > 50 | 0 | 0 | 0 | – | – | – | –
4 | COC[C@H](/N=[N+](\[O-])CCCCCCC(C)=O)[C@H](C)O [ELAIOMYCIN G] | > 50 | > 50 | 0 | 13 | 0 | 0 | 0 | 0 | 0 | 11 | 0 | 0 | 0 | > 50 | 0 | 0 | 0 | – | – | – | –
5 | CCCCCCCC/[N+]([O-])=N/[C@@H](COC)C(N)=O [ELAIOMYCIN H] | 37.5 (≈ 145 µM) | 40.5 (≈ 156 µM) | 15 | 14 | 0 | 0 | 0 | 0 | 0 | 12 | 0 | 0 | 13 | 38.2 (≈ 147 µM) | 0 | 0 | 0 | 8.88 | 1.2 | 5.99 | IC50 [9]: 1.15 µM; IC50 [10]: 5.42 µM; IC50 [11]: 8.01 µM; IC50 [12]: 3.74 µM; IC50 [13]: 4.65 µM; IC50 [14]: 8.57 µM; IC50 [15]: 9.84 µM; IC50 [16]: 3.95 µM; IC50 [17]: 9.49 µM
6 | CCCCCC/C=C\[N+]([O-])=N\[C@@H](COC)[C@H](C)O [ELAIOMYCIN] | > 50 | 35.1 (≈ 136 µM) | 0 | 12 | 0 | 0 | 0 | 10 | 0 | 14 | 0 | 0 | 0 | 30.4 (≈ 118 µM) | 0 | 0 | 0 | 14.7 | 9.24 | 10.2 | IC50 [9]: 9.72 µM; IC50 [10]: 20.2 µM; IC50 [11]: 9.21 µM; IC50 [12]: 10.8 µM; IC50 [13]: 7.97 µM; IC50 [14]: 14.7 µM; IC50 [15]: 11.8 µM; IC50 [16]: 10.4 µM; IC50 [17]: > 30 µM
